Measurements: the OPERA property sets (Mansouri et al. 2018)

SMILES	log10 OH rate constant (cm³/molecule/s) (25.0 °C)	also measured
CSC	-11.3	–
CCCCCCCCO	-10.8	–
C=CC[N+](=O)[O-]	-10.9	–
CCOCC	-10.9	–
CCCl	-12.4	–
CC#N	-13.6	–
C=C[N+](=O)[O-]	-11.9	–
CC1(C)C2CC3C(C2)C31C	–	log10 OH rate constant (cm³/molecule/s) (23.0 °C): -11.5
CCON=O	-12.2	–
FC(F)(F)C(F)(F)C(Cl)Cl	-13.6	–
CCCCON=O	-11.6	–
FC(F)(Br)C(F)(F)Br	–	log10 OH rate constant (cm³/molecule/s) (23.0 °C): < -15.9
CC[N+](=O)[O-]	-12.8	–
FC(Cl)C(F)(F)C(F)(F)Cl (centres undefined)	–	log10 OH rate constant (cm³/molecule/s) (22.0 °C): -14.1
FC(F)(F)Br	< -16	–
FC(Cl)(Cl)Cl	< -15.3	–
FC(Br)(Br)Br	< -15	–
CC(C)(C)OO	-11.5	–
C	-14.2	–
C[C@@H]1CC[C@@H]2C[C@H]1C2(C)C	–	log10 OH rate constant (cm³/molecule/s) (23.0 °C): -10.9
C1=Cc2ccccc2C1	–	log10 OH rate constant (cm³/molecule/s) (22.0 °C): -10.3
CCCCSCCCC	–	log10 OH rate constant (cm³/molecule/s) (22.0 °C): -10.4
C1C2C3C2C2C1C32 (centres undefined)	-11.7	–
CCCCCCCCCCCC	-10.8	–
O=[N+]([O-])C1=CCCCC1	-10.4	–
CON=O	-12.7	–
FC(F)(Br)Br	–	log10 OH rate constant (cm³/molecule/s) (24.0 °C): < -15.2
COS(=O)(=O)OC	< -12.3	–
CCCCO[N+](=O)[O-]	-11.8	–
